Assay results: patent US20240216317A1, “COMPOSITION FOR PREVENTING, AMELIORATING OR TREATING INFLAMMATORY BOWEL DISEASE COMPRISING COMPOUND ISOLATED FROM ISODON EXCISUS AS EFFECTIVE COMPONENT” (HEALINNOLS INC., priority 2022, published 2024)

Legend:
[1] = system: ZO-1; test: Immunofluorescence microscopy of tight junction-related protein ZO-1 in intestinal epithelial wall model (DSS-treated Caco-2); assay type: cell-based, human; details: 3% DSS, 24 hours; Chemical formula 1 0.3, 1 or 3 μM; 5-ASA 500 μM; FIG. 2
Protocol: Caco-2 cell line (human intestinal epithelial cell line) and RAW 264.7 cell line, which is macrophage cells derived from mouse, were cultured at 37° C., 5% CO2 conditions by using DMEM (Dulbecco's Modified Eagle Medium, #11995065, Gibco) containing 10% FBS (fetal bovine serum, #16000044, Gibco) and 1% streptomycin/penicillin (#15140122, Gibco). For culturing the cells, the medium exchange was carried out every 2 to 3 days, and, once the cells are grown to the level of 80% in cell culture dish (#353003, Falcon), they were maintained by subculture.
The Caco-2 cells were adjusted to have density of 2×10^5 cells/ml. Suspension of the cells (0.5 ml) was aliquoted in apical side membrane phase of a transwell insert 12-well plate. To the basolateral side phase, 1.5 ml of culture medium were added. While replacing the medium with fresh one, once per 2 or 3 days, culture was continued for 21 days approximately, i.e., till to have cell division and suitable TEER (transepithelial electrical resistance) value of monolayer. […]
Thereafter, the cells were washed 3 times with 1×PBS for 5 minutes and treated for 5 minutes with Hoechst 33342 for staining the nucleus. […] After the mounting with ProLong™ Gold Antifade reagent, it was examined by confocal fluorescence microscopy.

[2] = target: T1, RIPK2 (Homo sapiens, UniProt O43353); test: Inhibitory activity on RIPK2 phosphorylation using Western blot in Caco-2 cells; assay type: cell-based; details: FIG. 1
T1 construct: Caco-2 cells were dissolved by adding buffer solution for degradation; endogenous in cells; host or cells: Caco-2
Protocol: Caco-2 cells were adjusted to have density of 2×10^5 cells/ml. Suspension of the cells (0.5 ml) was aliquoted in apical side membrane phase of a transwell insert 12-well plate. To the basolateral side phase, 1.5 ml of culture medium were added. While replacing the medium with fresh one, once per 2 or 3 days, culture was continued for 21 days approximately, i.e., till to have cell division and suitable TEER (transepithelial electrical resistance) value of monolayer.
For measuring the electric resistance (TEER value, Ω·cm^2) between the apical side and basolateral side, EVOM resistance meter (EVOM2, WPI) was employed.
Once the TEER value of Caco-2 cells is 200 Ω·cm^2 or higher, MDP inside the insert was treated for 24 hours with the compound represented by Chemical formula 1 of the present invention. After washing Caco-2 cells inside the insert with 1×PBS, they were treated with trypsin. After centrifuge and washing with cold 1×PBS, Caco-2 cells were dissolved by adding buffer solution for degradation (50 mM Tris-HCl (pH 8.0), 5 mM EDTA, 15 mM NaCl, 1% NP-40, 1 mM PMSF) followed by centrifuge for 20 minutes at 12,000 rpm, 4° C. Only the supernatant was then collected and protein quantification was carried out by using BCA protein assay kit. […]

T1 sequence (O43353 whole entry): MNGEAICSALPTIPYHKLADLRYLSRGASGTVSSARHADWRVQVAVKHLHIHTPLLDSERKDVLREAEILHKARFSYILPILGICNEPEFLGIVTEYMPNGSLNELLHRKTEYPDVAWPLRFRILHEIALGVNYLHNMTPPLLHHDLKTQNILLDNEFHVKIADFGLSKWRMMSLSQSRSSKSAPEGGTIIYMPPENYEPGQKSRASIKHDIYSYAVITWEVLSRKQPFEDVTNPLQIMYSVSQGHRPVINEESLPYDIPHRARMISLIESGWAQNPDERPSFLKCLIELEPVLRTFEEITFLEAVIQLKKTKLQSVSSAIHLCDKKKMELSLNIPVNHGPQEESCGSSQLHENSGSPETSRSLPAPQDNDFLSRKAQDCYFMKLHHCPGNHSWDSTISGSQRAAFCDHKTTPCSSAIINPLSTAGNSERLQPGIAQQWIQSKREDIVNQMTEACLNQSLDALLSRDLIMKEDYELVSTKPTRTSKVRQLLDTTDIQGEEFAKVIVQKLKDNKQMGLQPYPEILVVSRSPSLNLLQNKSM

| inhibitory activity on RIPK2 phosphorylation relative to gefitinib (positive control) [2] | inhibition of activation of RIPK2 (phosphorylation) ([2]; MDP, 24 hours treatment) | SMILES | expression amount of ZO-1 compared to DSS model group [1] |
| --- | --- | --- | --- |
|  |  | Nc1ccc(O)c(C(=O)O)c1 [Compound 5-ASA, 5-aminosalicylic acid, reference compound] | statistically significantly higher |
| at least 2 times | can inhibit the activation of RIPK2 | COC(=O)C[C@H](OC(=O)/C=C/c1ccc(O)c(O)c1)c1ccc(O)c(O)c1 [Compound 1, 3-[3,4-dihydroxyphenyl]acrylic acid 1-[3,4-dihydroxyphenyl]-2-methoxycarbonylethyl ester] | statistically significantly higher |
